Measured values published in patent US7067667B2, “Aminoalkyl-3, 4-dihydroquinoline derivatives as no-synthase inhibitors” (Schering Aktiengesellschaft, priority 1998, dated 2006).
Structures can show the parent of a compound that is named as a salt.

Target: bNOS (UniProt P29475)
Test: bNOS inhibition (method of Bredt and Snyder)
Assay type: biochemical
Excerpt: The NOS-inhibitory action of the compounds of Formula (I) and their physiologically compatible salts can be determined according to the methods by Bredt and Snyder in Proc. Natl. Acad. Sci. USA (1989) 86, 9030–9033.

**Q.** Which IC50 does the source give for `NC1=Nc2cc(CCNCc3cccc(Cl)c3)c(Cl)cc2C2CCCC12` (stereo not shown) [Example 8, 4-Amino-8-chloro-7-(3-chlorobenzylamino)ethyl-2,3,3a,9b-tetrahydro-1H-cyclopenta[c]quinoline Dihydrochloride] here?
**A.** 190 nM
